Measurements as given in patent publication US9597337B2, “Berberine-ursodeoxycholic acid conjugate for treating the liver” (NORTH AMERICAN BIOMEDICAL RESEARCH CENTER USA, INC., priority 2014, dated 2017).
Read-outs that look alike come from different tables or passages of the source.

Experiments:
KMCH cells [1] = test: CCK-8 cell viability assay in KMCH cells; type: cell-based
Excerpt: (§1) FIG. 2 is a set of graphs showing the ability of various molecules to kill KMCH and GS-Li013 cells, which are cholangiocarcinoma cells. The data presented in FIG. 2 is based on in-vtro studies. The y-axis of each graph represents the Cell viability percentage 205 of KMCH and GS-Li013 cells. The x-axis of each graph represents the Log[C]210. [C] refers to the concentration of the molecule tested in uM. IC50 commonly refers to the half maximal inhibitory concentration, and is used to numerically represent the efficacy of various molecules to be effective in their respective tasks. In this case, IC50 means the concentration at which half of the target cells are no longer viable. […] The unit uM is used to represent the IC50 value. uM is the same as micro molar concentration, which is 10^−6 moles/liter, a common concentration unit.
(§2) To obtain the data in FIG. 2, Cell Counting Kit-8 (CCK-8) was used. CCK-8 is commercially available from Dojindo Molecular Technologies, Inc. CCK-8 allows sensitive colorimetric assays for the determination of cell viability in cell proliferation and cytotoxicity assays. Dojindo's highly water-soluble tetrazolium salt, used in CCK-8, is reduced by dehydrogenase activities in cells to give a yellow-color formazan dye, which is soluble in the tissue culture media. The amount of the formazan dye, generated by the activities of dehydrogenases in cells, is directly proportional to the number of living cells. The detection sensitivity of CCK-8 may be higher than the other tetrazolium salts such as MTT, XTT, MTS or WST-1. Cancerous cells in a cell culture were exposed to the either irinotecan, ursodeoxycholic acid, berberine, or NABR01, and the results were recorded. Various concentrations of each molecule were used, resulting in different amount of cell viability. Cell viability was measured according to the procedures of CCK-8, namely higher cell counts lead to higher absorption measurements, which would mean lower drug efficacy.
DLD1 refers to Dukes' type C, colorectal adenocarcinoma, and NABR01 has an IC50 of 5.0 uM for DLD1. HCT2 refers to a hamster lymphoid cell line, and NABR01 has an IC50 of 6.0 uM for HCT2. […] NABR01 has an unexpectedly effective IC50 of less than 10 uM for the cell lines described above, and the related cancers.

GS-Li013 cells = test: CCK-8 cell viability assay in GS-Li013 cells; type: cell-based; details: GS-Li013 (GS-cell lines), 24 hour treatment
Excerpt: as §1, §2

DLD1 = test: CCK-8 cell viability assay, DLD1; type: cell-based; details: Homo sapiens, DLD-1, DLD1, 48 hour period
Excerpt: as §2
(§3) DLD1 refers to Dukes' type C, colorectal adenocarcinoma, and NABR01 has an IC50 of 5.0 uM for DLD1. HCT2 refers to a hamster lymphoid cell line, and NABR01 has an IC50 of 6.0 uM for HCT2. […]

HCT2 = test: CCK-8 cell viability assay, HCT2; type: cell-based, hamster; details: Mesocricetus auratus, HCT2, 48 hour period
Excerpt: as §2, §3

CCA = test: CCK-8 cell viability assay, CCA; type: cell-based; details: 48 hour period
Excerpt: as §2, §3

HepG2 = test: CCK-8 cell viability assay, HepG2; type: cell-based; details: Homo sapiens, HepG2, 48 hour period
Excerpt: as §2, §3

MDA468 = test: CCK-8 cell viability assay, MDA468; type: cell-based; details: MDA468, 48 hour period
Excerpt: as §2, §3

U2OS = test: CCK-8 cell viability assay, U2OS; type: cell-based; details: Homo sapiens, 48 hour period
Excerpt: as §2, §3

PANC1 = test: CCK-8 cell viability assay, PANC1; type: cell-based; details: Homo sapiens, PANC-1, PANC1, 48 hour period
Excerpt: as §2, §3

HCT = test: CCK-8 cell viability assay, HCT; type: cell-based; details: 48 hour period
Excerpt: as §2, §3

HT29 = test: CCK-8 cell viability assay, HT29; type: cell-based; details: Homo sapiens, HT-29, HT29, 48 hour period
Excerpt: as §2, §3

MCF7 = test: CCK-8 cell viability assay, MCF7; type: cell-based; details: Homo sapiens, MCF7, 48 hour period
Excerpt: as §2, §3

SJSA = test: CCK-8 cell viability assay, SJSA; type: cell-based; details: 48 hour period
Excerpt: as §2
(§4) As shown in FIGS. 19-20, the efficacy of NABR01 can vary greatly depending on the cancerous cell line, and as a result, NABR01 may not be effective against certain cell lines. […]

HuCCT = test: CCK-8 cell viability assay, HuCCT; type: cell-based; details: 48 hour period
Excerpt: as §2, §4

PC3 = test: CCK-8 cell viability assay, PC3; type: cell-based; details: Homo sapiens, PC-3, PC3, 48 hour period
Excerpt: as §2, §4

MDA231 = test: CCK-8 cell viability assay, MDA231; type: cell-based; details: Homo sapiens, MDA-MB-231, MDA231, 48 hour period
Excerpt: as §2, §4

KMCH cells [2] = test: Western blot analysis of signaling and apoptosis proteins in KMCH cells; type: cell-based; details: for cytochrome C release from mitochondria, western blot: berberine at same concentration as NABR01
Protocol: FIGS. 6-18 is data which illustrates the mechanism of action for NABR01. Once a mechanism of action is known, it may become possible to predict with some level of accuracy the effects a drug may have, though extensive testing would still be required. Until a mechanism is known, it is extremely difficult to predict what a particular molecule or compound may be useful for, if it is even useful at all. A western blot analysis was performed for MAP kinase signaling proteins, phospho p38, phospho JNK and phospho ERK in KMCH cells with and without NABR01 treatment.
The cytotoxic effect of NABR01 in addition to downregulation of Bcl2, may be attributed to an increase in proapoptotic protein Bim which is specifically cleaved to generate the cytotoxic Bims-form in KMCH cells are treated with NABR01. Caspase-9 is cleaved in cells treated with NABR01 indicating an upstream activation of Caspase 3. […] Accordingly, not only does the ursodiol component of NABR01 assist in targeting, but ursodiol also increases efficacy of the compound when introduced directly to the relevant cells, a wholly unexpected effect.
The activity of pro-inflammatory signaling pathway protein phospho STAT may also increase in NABR01 treated cells.

KMCH tumor = test: Tumor xenograft study in mice; type: in vivo
Excerpt: Tumor xenografts studies in mice indicate that the tumor growth corresponding to weight and volume in NABR01 treated group of mice was reduced by approximately 45% in size when treated for 21 days.

[3] = KMCH cells, 24 hour treatment, read-out: IC50 (cell viability)

`COc1ccc2cc3[n+](cc2c1OCCCCCCNC(=O)CC[C@@H](C)[C@H]1CC[C@H]2[C@@H]4[C@@H](O)CC5CC(O)CC[C@]5(C)[C@H]4CC[C@]12C)CCc1cc2c(cc1-3)OCO2` (stereo in doubt) [NABR01, berberine-ursodeoxycholic acid conjugate] was tested, and the IC50 (KMCH cells [1]; [3]) was 15 µM, the IC50 (KMCH cells [1]; KMCH, 48 hour period, read-out: IC50) was 2.9 µM and the IC50 (GS-Li013 cells) was 15 µM. The IC50 (DLD1) was 5 µM, the IC50 (HCT2) was 6 µM and the IC50 (CCA) was 4.8 µM. For the same compound, the IC50 (HepG2) was 5.4 µM, the IC50 (MDA468) was 2.1 µM and the IC50 (U2OS) was 4.3 µM. The IC50 (PANC1) was 3.3 µM, the IC50 (HCT) was 3.9 µM and the IC50 (HT29) was 5.2 µM. The IC50 (MCF7) was 9.2 µM, the IC50 (SJSA) was 14 µM and the IC50 (HuCCT) was 15 µM. The IC50 (PC3) was 16 µM, the IC50 (MDA231) was 36 µM and the “phospho PTEN, western blot” value (KMCH cells [2]) was “remain unchanged”. The “pro-apoptotic protein Noxa” value (KMCH cells [2]) was “increase”, the “PARP activation by cleavage, western blot” value (KMCH cells [2]; 10 uM) was “activated” and the “anti-apoptotic protein Bcl2, western blot” value (KMCH cells [2]; 10 uM) was “down regulated”. The “phospho ERK (cell survival pathway), western blot” value (KMCH cells [2]; 10 uM) was “downregulated”, the “phospho JNK (cell death signaling pathway), western blot” value (KMCH cells [2]; 10 uM) was “increased” and the “phospho p38 (cell death signaling pathway), western blot” value (KMCH cells [2]; 10 uM) was “increased”. The “AKT signaling pathway, western blot” value (KMCH cells [2]; 10 uM, 16 hours) was “downregulated”, the “phosphor-AKT pathway, western blot” value (KMCH cells [2]; 10 uM, 16 hours) was “downregulated” and the “proapoptotic protein Bim (cleaved to Bims-form), western blot” value (KMCH cells [2]; 10 uM, 24 hours) was “increase”. For the same compound, the “Caspase-9 cleavage, western blot” value (KMCH cells [2]; 10 uM, 48 hours) was “cleaved”, the “Phospho CKH2 (DNA repair), western blot” value (KMCH cells [2]; 16 hours) was “increased activity” and the “Total P53 levels, western blot” value (KMCH cells [2]; 16 hours) was “downregulated”. For the same compound, the “phospho STAT (pro-inflammatory signaling), western blot” value (KMCH cells [2]; 16 hours) was “increase”, the “phosphoATM (DNA repair), western blot” value (KMCH cells [2]; 16 hours) was “increased activity” and the “phospho 4EBP1, western blot” value (KMCH cells [2]; 24 hours) was “not significantly altered”. The “phospho EF2k, western blot” value (KMCH cells [2]; 24 hours) was “not significantly altered”, the “phospho eIF4E, western blot” value (KMCH cells [2]; 24 hours) was “not significantly altered” and the “phospho p70S6 kinase, western blot” value (KMCH cells [2]; 24 hours) was “not significantly altered”. For the same compound, the “phosphor mTOR 52481 pathway, western blot” value (KMCH cells [2]; 24 hours) was “downregulated”, the “cytochrome C release from mitochondria, western blot” value (KMCH cells [2]) was “released from mitochondria” and the Bcl2 protein levels (KMCH cells [2]; by 24hrs of exposure) was “significant decrease”. The tumor weight inhibition (KMCH tumor; mice with a KMCH tumor, 4 mg/kg) was 43.46% and the “tumor growth (weight and volume) reduction in size” value (KMCH tumor; mice, tumor xenografts, treated for 21 days) was “approximately 45%”.
`COc1ccc2cc3[n+](cc2c1OC)CCc1cc2c(cc1-3)OCO2` [berberine] was tested, and the IC50 (KMCH cells [1]; [3]) was 200 µM, the IC50 (GS-Li013 cells) was 200 µM and the “phospho ERK (cell survival pathway), western blot” value (KMCH cells [2]; 10 uM) was “not observed”. For the same compound, the “phospho JNK (cell death signaling pathway), western blot” value (KMCH cells [2]; 10 uM) was “not observed”, the “phospho p38 (cell death signaling pathway), western blot” value (KMCH cells [2]; 10 uM) was “not observed” and the “cytochrome C release from mitochondria, western blot” value (KMCH cells [2]) was “did not result in the release”.
In the case of `CCc1c2c(nc3ccc(OC(=O)N4CCC(N5CCCCC5)CC4)cc13)-c1cc3c(c(=O)n1C2)COC(=O)[C@]3(O)CC` [irinotecan], the IC50 (KMCH cells [1]; [3]) is reported as 95 µM and the IC50 (GS-Li013 cells) is reported as 90 µM.
`C[C@H](CCC(=O)O)[C@H]1CC[C@H]2[C@@H]3[C@@H](O)C[C@@H]4C[C@H](O)CC[C@]4(C)[C@H]3CC[C@]12C` [ursodeoxycholic acid] was tested, and the “IC50 (cell viability)” value (KMCH cells [1]; KMCH cells, 24 hour treatment) was “no IC50” and the “IC50 (cell viability)” value (GS-Li013 cells) was “no IC50”.
